Measurements from patent publication US10654834B2 (Venenum Biodesign, LLC, priority 2016, dated 2020).
pEC50: −log10 of the molar value.

Key:
[1] = Pharmacokinetic profile in mice after oral gavage; type: in vivo, mouse; conditions: mouse; fasted male Hilltop mice, 10 mg/kg oral gavage, plasma; read-out: Cmax
Summary of the method: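 Plasma exposure (Cmax, AUC) by non-compartmental analysis of LC-MS/MS data, orbital blood taken at 0, 0.25, 0.5, 1, 2 and 4 h, each value averaging three mice. Dosing: 10 mg/kg oral gavage to overnight-fasted male Hilltop mice (8 weeks), vehicle PEG400/CMC/Tween-80.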

Mouse STC-1 cells = assay: STC-1 GLP-1 assay (GLP-1 secretion); type: cell-based; conditions: Mouse STC-1 cells, GLP-1 secretion, 2 h; read-out: Mouse STC-1 HTRF GLP-1 Activity (EC50)
Summary of the method: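 Secreted active GLP-1 was measured by HTRF after overnight room-temperature incubation of supernatant with the conjugates. Supernatants came from a 2 h, 37° C. compound exposure (12-point half-log series) in HBSS with DPP-IV and protease inhibitors and 0.1% fatty acid free BSA. STC-1 cells had been seeded two days earlier in stripped-serum DMEM; EC50 reported.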

SMILES | Cmax [1] | pEC50 (Mouse STC-1 cells)
CN(C)CCC1CCN(c2cc(N3CCC[C@H]3C(=O)NCCc3ccc(C(F)(F)F)cc3)nc(C(F)(F)F)n2)CC1 [Compound 5] | 338 ng/mL | 6.00 to 7.00
O=C(O)CCCC1CCN(c2cc(N3CCC[C@H]3C(=O)NCCc3ccc(C(F)(F)F)cc3)nc(C(F)(F)F)n2)CC1 [Compound 9] | 48 ng/mL | > 7.00
N#Cc1ccc(CCNC(=O)[C@@H]2CCCN2c2cc(N3CCC(CCO)CC3)nc(C(F)(F)F)n2)cc1 [Compound 22] | 171 ng/mL | > 7.00
COCC1CCN(c2cc(N3CCC[C@H]3C(=O)NCCc3ccc(C#N)cc3)nc(C(F)(F)F)n2)CC1 [Compound 24] | 970 ng/mL | 6.00 to 7.00
N#Cc1ccc(CCNC(=O)[C@@H]2CCCN2c2cc(N3CCC(CCC(=O)O)CC3)nc(C(F)(F)F)n2)cc1 [Compound 28] | 75 ng/mL | 6.00 to 7.00
N#Cc1ccc(CCNC(=O)[C@@H]2CCCN2c2cc(N3CCC(CCCC(=O)O)CC3)nc(C(F)(F)F)n2)cc1 [Compound 29] | 55 ng/mL | 6.00 to 7.00
N#CCCN1CCN(c2cc(N3CCC[C@H]3C(=O)NCCc3ccc(C#N)cc3)nc(C(F)(F)F)n2)CC1 [Compound 32] | 1350 ng/mL | 6.00 to 7.00
COc1cc(C(F)(F)F)ccc1CCNC(=O)[C@@H]1CCCN1c1cc(N2CCC(CCCC(=O)O)CC2)nc(C(F)(F)F)n1 [Compound 34] | 31 ng/mL | > 7.00
N#Cc1ccc(CCNC(=O)[C@@H]2CCCN2c2cc(N3CCC(CCN)CC3)nc(C(F)(F)F)n2)cc1 [Compound 50, (S)-1-(6-(4-(2-aminoethyl)piperidin-1-yl)-2-(trifluoromethyl)pyrimidin-4-yl)-N-(4-cyanophenethyl)pyrrolidine-2-carboxamide] | 214 ng/mL | 4.52 to 6.00
N#Cc1ccc(CCNC(=O)[C@@H]2CCCN2c2cc(N3CCC(CCC(=O)NCCS(=O)(=O)O)CC3)nc(C(F)(F)F)n2)cc1 [Compound 56, (S)-2-(3-(1-(6-(2-((4-cyanophenethyl)carbamoyl)pyrrolidin-1-yl)-2-(trifluoromethyl)pyrimidin-4-yl)piperidin-4-yl)propanamido)ethanesulfonic acid] | 14 ng/mL | 6.00 to 7.00
COc1cc(C(F)(F)F)ccc1CCNC(=O)[C@@H]1CCCN1c1cc(N2CCC(CCCC(=O)NCCS(=O)(=O)O)CC2)nc(C(F)(F)F)n1 [Compound 57, (S)-2-(4-(1-(6-(2-((2-methoxy-4-(trifluoromethyl)phenethyl)carbamoyl)-pyrrolidin-1-yl)-2-(trifluoromethyl)-pyrimidin-4-yl)piperidin-4-yl)butanamido)ethanesulfonic acid] | 13 ng/mL | > 7.00
O=C(CCCC1CCN(c2cc(N3CCC[C@H]3C(=O)NCCc3ccc(C(F)(F)F)cc3)nc(C(F)(F)F)n2)CC1)NCCS(=O)(=O)O [Compound 58, (S)-2-(4-(1-(2-(trifluoromethyl)-6-(2-((4-(trifluoromethyl)phenethyl)-carbamoyl)-pyrrolidin-1-yl)-pyrimidin-4-yl)piperidin-4-yl)butanamido)ethanesulfonic acid] | 29 ng/mL | > 7.00
NS(=O)(=O)CCNC(=O)CCCC1CCN(c2cc(N3CCC[C@H]3C(=O)NCCc3ccc(C(F)(F)F)cc3)nc(C(F)(F)F)n2)CC1 [Compound 59, (S)-1-(6-(4-(4-oxo-4-((2-sulfamoylethyl)amino)butyl)piperidin-1-yl)-2-(trifluoromethyl)pyrimidin-4-yl)-N-(4-(trifluoromethyl)phenethyl)-pyrrolidine-2-carboxamide] | 43 ng/mL | > 7.00
O=C(CCCC1CCN(c2cc(N3CCC[C@H]3C(=O)NCCc3ccc(C(F)(F)F)cc3)nc(C(F)(F)F)n2)CC1)NCCCS(=O)(=O)O [Compound 60, (S)-3-(4-(1-(2-(trifluoromethyl)-6-(2-((4-(trifluoromethyl)phenethyl)carbamoyl)pyrrolidin-1-yl)pyrimidin-4-yl)piperidin-4-yl)butanamido)propane-1-sulfonic acid] | 4.3 ng/mL | > 7.00
N#Cc1ccc(CCNC(=O)[C@@H]2CCCN2c2cc(N3CCC(CCCC(=O)NCCS(=O)(=O)O)CC3)nc(C(F)(F)F)n2)cc1 [Compound 61, (S)-2-(4-(1-(6-(2-((4-cyanophenethyl)carbamoyl)pyrrolidin-1-yl)-2-(trifluoromethyl)pyrimidin-4-yl)-piperidin-4-yl)butanamido)ethanesulfonic acid] | 3.3 ng/mL | > 7.00
N#Cc1ccc(CCNC(=O)[C@@H]2CCCN2c2cc(N3CCC(CCCC(=O)NCCS(N)(=O)=O)CC3)nc(C(F)(F)F)n2)cc1 [Compound 62, (S)-N-(4-cyanophenethyl)-1-(6-(4-(4-oxo-4-((2-sulfamoylethyl)amino)butyl)piperidin-1-yl)-2-(trifluoromethyl)pyrimidin-4-yl)pyrrolidine-2-carboxamide] | 33 ng/mL | > 7.00
N#Cc1ccc(CCNC(=O)[C@@H]2CCCN2c2cc(N3CCC(CCCC(=O)NCCCS(=O)(=O)O)CC3)nc(C(F)(F)F)n2)cc1 [Compound 63, (S)-3-(4-(1-(6-(2-((4-cyanophenethyl)carbamoyl)pyrrolidin-1-yl)-2-(trifluoromethyl)pyrimidin-4-yl)-piperidin-4-yl)butanamido)propane-1-sulfonic acid] | 1.3 ng/mL | > 7.00
N#Cc1ccc(CCNC(=O)[C@@H]2CCCN2c2cc(N3CCC(CCCC(=O)NCC(=O)O)CC3)nc(C(F)(F)F)n2)cc1 [Compound 103, (S)-2-(4-(1-(6-(2-((4-cyanophenethyl)carbamoyl)pyrrolidin-1-yl)-2-(trifluoromethyl)pyrimidin-4-yl)piperidin-4-yl)butanamido)acetic acid] | 9.3 ng/mL | > 7.00
N#Cc1ccc(CCNC(=O)[C@@H]2CCCN2c2cc(N3CCC(CCCC(=O)NCCC(=O)O)CC3)nc(C(F)(F)F)n2)cc1 [Compound 104, (S)-3-(4-(1-(6-(2-((4-cyanophenethyl)carbamoyl)pyrrolidin-1-yl)-2-(trifluoromethyl)pyrimidin-4-yl)-piperidin-4-yl)butanamido)-propanoic acid] | 8.9 ng/mL | 6.00 to 7.00
N#Cc1ccc(CCNC(=O)[C@@H]2CCCN2c2cc(N3CCC(CCNC(=O)NCCS(=O)(=O)NCC(=O)O)CC3)nc(C(F)(F)F)n2)cc1 [Compound 107] | 0.4 ng/mL | 6.00 to 7.00
N#Cc1ccc(CCNC(=O)[C@@H]2CCCN2c2cc(N3CCC(CCCC(=O)NCCC(=O)NC(CO)(CO)CO)CC3)nc(C(F)(F)F)n2)cc1 [Compound 109, (S)—N-(4-cyanophenethyl)-1-(6-(4-(4-((3-((1,3-dihydroxy-2-(hydroxymethyl)propan-2-yl)amino)-3-oxopropyl)amino)-4-oxobutyl)piperidin-1-yl)-2-(trifluoromethyl)-pyrimidin-4-yl)pyrrolidine-2-carboxamide] | 3.2 ng/mL | 6.00 to 7.00
N#Cc1ccc(CCNC(=O)[C@@H]2CCCN2c2cc(N3CCC(CCCC(=O)NCCNc4ncc(C(=O)NCCS(=O)(=O)O)cn4)CC3)nc(C(F)(F)F)n2)cc1 [Compound 112, (S)-2-(2-((2-(4-(1-(6-(2-((4-cyanophenethyl)carbamoyl)pyrrolidin-1-yl)-2-(trifluoromethyl)pyrimidin-4-yl)piperidin-4-yl)butanamido)ethyl)amino)-pyrimidine-5-carboxamido)ethanesulfonic acid] | 1.1 ng/mL | > 7.00
N#Cc1ccc(CCNC(=O)[C@@H]2CCCN2c2cc(N3CCC(CCNC(=O)NCCC(=O)NCCS(=O)(=O)O)CC3)nc(C(F)(F)F)n2)cc1 [Compound 113, (S)-2-(3-(3-(2-(1-(6-(2-((4-cyanophenethyl)carbamoyl)pyrrolidin-1-yl)-2-(trifluromethyl)pyrimidin-4-yl)piperidin-4-yl)ethyl)ureido)-propanamido)-ethanesulfonic acid] | 0.13 ng/mL | 6.00 to 7.00
O=C(O)CNS(=O)(=O)CCNC(=O)CCCC1CCN(c2cc(N3CCC[C@H]3C(=O)NCCc3ccc(C(F)(F)F)cc3)nc(C(F)(F)F)n2)CC1 [Compound 114, (S)-2-(2-(4-(1-(2-(trifluoromethyl)-6-(2-((4-(trifluoromethyl)phenethyl)-carbamoyl)-pyrrolidin-1-yl)pyrimidin-4-yl)piperidin-4-yl)butanamido)ethyl-sulfonamido)acetic acid] | 4.8 ng/mL | > 7.00
N#Cc1ccc(CCNC(=O)[C@@H]2CCCN2c2cc(N3CCC(CCCC(=O)NCCS(=O)(=O)NCC(=O)O)CC3)nc(C(F)(F)F)n2)cc1 [Compound 115, (S)-2-(2-(4-(1-(6-(2-((4-cyanophenethyl)carbamoyl)pyrrolidin-1-yl)-2-(trifluoromethyl)pyrimidin-4-yl)piperidin-4-yl)butanamido)-ethylsulfonamido)acetic acid] | 2.7 ng/mL | > 7.00
N#Cc1ccc(CCNC(=O)[C@@H]2CCCN2c2cc(N3CCC(CCCNC(=O)NCCS(N)(=O)=O)CC3)nc(C(F)(F)F)n2)cc1 [Compound 120, (S)-N-(4-cyanophenethyl)-1-(6-(4-(3-(3-(2-sulfamoylethyl)ureido)propyl)piperidin-1-yl)-2-(trifluoromethyl)pyrimidin-4-yl)pyrrolidine-2-carboxamide] | 2.6 ng/mL | > 7.00
N#Cc1ccc(CCNC(=O)[C@@H]2CCCN2c2cc(N3CCC(CCCNC(=O)NCC(=O)O)CC3)nc(C(F)(F)F)n2)cc1 [Compound 121, (S)-2-(3-(3-(1-(6-(2-((4-cyanophenethyl)carbamoyl)pyrrolidin-1-yl)-2-(trifluoromethyl)pyrimidin-4-yl)piperidin-4-yl)propyl)ureido)acetic acid] | 235 ng/mL | 6.00 to 7.00
